Like-named read-outs stand apart in the source and are kept apart here.
Tests used:
[1] = biological target: AM2 V27A (valine→alanine mutation at residue 27 in the M2 protein) (Influenza A virus, UniProt P0DOF5, V27A); type: cell-based, influenza virus A/Udorn/72
[2] = biological target: AM2 S31N (serine→asparagine mutation at residue 31 in the M2 protein) (Influenza A virus, UniProt P0DOF5, S31N); type: cell-based, influenza virus A/Udorn/72

SMILES | V27A OOcyte Inhibition at 100 uM (%) ([1]; pH 5.5) | S31N OOcyte Inhibition at 100 uM (%) ([2]; pH 5.5) | V27A OOcyte Inhibition at 100 uM (%) [1] | S31N OOcyte Inhibition at 100 uM (%) [2]
COc1ccc(CNC23CC4CC(CC(C4)C2)C3)cc1 [Example 16, Adamantan-1-yl-(4-methoxy-benzyl)-amine] | A (key: (A)=31-95%; (B)=0-30%) | A (key: (A)=31-95%; (B)=0-30%) | – | –
CCOc1ccc(CNC23CC4CC(CC(C4)C2)C3)cc1 [Example 1a, Adamantan-1-yl-(4-ethoxy-benzyl)-amine] | – | – | B (key: (A)=31-95%; (B)=0-30%) | A (key: (A)=31-95%; (B)=0-30%)
c1csc(CNC23CC4CC(CC(C4)C2)C3)n1 [Example 71a, Adamantan-1-yl-thiazol-2-ylmethyl-amine] | – | – | B (key: (A)=31-95%; (B)=0-30%) | A (key: (A)=31-95%; (B)=0-30%)
COc1ccc(CNC23CC4CC(CC(C4)C2)C3)s1 [Example 75a, N-((5-methoxythiophen-2-yl)methyl)adamantan-1-amine] | – | – | B (key: (A)=31-95%; (B)=0-30%) | A (key: (A)=31-95%; (B)=0-30%)
c1cn2cc(CNC3C4CC5CC(C4)CC3C5)nc2s1 (stereo not shown) [Example 107, Adamantan-2-yl-imidazo[2,1-b]thiazol-6-ylmethyl-amine] | B (key: (A)=31-95%; (B)=0-30%) | B (key: (A)=31-95%; (B)=0-30%) | – | –
c1cc(COc2ccc(CNC34CC5CC(CC(C5)C3)C4)cc2)co1 [Example 22, Adamantan-1-yl-[4-(furan-3-ylmethoxy)-benzyl]-amine] | B (key: (A)=31-95%; (B)=0-30%) | A (key: (A)=31-95%; (B)=0-30%) | – | –
COc1ccc(C(C)NC23CC4CC(CC(C4)C2)C3)cc1 (stereo not shown) [Example 11a, N-(1-(4-methoxyphenyl)ethyl)adamantan-1-amine] | – | – | A (key: (A)=31-95%; (B)=0-30%) | A (key: (A)=31-95%; (B)=0-30%)
Oc1ccc(CNC23CC4CC(CC(C4)C2)C3)cc1 [Example 9, 4-(Adamantan-1-ylaminomethyl)-phenol] | B (key: (A)=31-95%; (B)=0-30%) | A (key: (A)=31-95%; (B)=0-30%) | – | –
NC(=O)c1ccc(CNC23CC4CC(CC(C4)C2)C3)cc1 [Example 18, 4-(Adamantan-1-ylaminomethyl)-benzamide] | B (key: (A)=31-95%; (B)=0-30%) | B (key: (A)=31-95%; (B)=0-30%) | – | –
Oc1ccc(CNC2C3CC4CC(C3)CC2C4)cc1 (stereo not shown) [Example 99, 4-(Adamantan-2-ylaminomethyl)-phenol] | B (key: (A)=31-95%; (B)=0-30%) | B (key: (A)=31-95%; (B)=0-30%) | – | –
Brc1ccc(-c2ccc(CNC34CC5CC(CC(C5)C3)C4)s2)s1 [Example 159a, N-((5′-bromo-[2,2′-bithiophen]-5-yl)methyl)adamantan-1-amine] | – | – | B (key: (A)=31-95%; (B)=0-30%) | A (key: (A)=31-95%; (B)=0-30%)
c1cc(-c2ccc(CNC34CC5CC(CC(C5)C3)C4)o2)[nH]n1 [Example 162a, N-((5-(1H-pyrazol-5-yl)furan-2-yl)methyl)adamantan-1-amine] | – | – | B (key: (A)=31-95%; (B)=0-30%) | B (key: (A)=31-95%; (B)=0-30%)
O=C(Oc1ccc(CNC23CC4CC(CC(C4)C2)C3)cc1)C1CC1 [Example 34, Cyclopropanecarboxylic acid 4-(adamantan-1-ylaminomethyl)-phenyl ester] | B (key: (A)=31-95%; (B)=0-30%) | B (key: (A)=31-95%; (B)=0-30%) | – | –
Oc1cc(-c2ccccc2)ccc1CNC12CC3CC(CC(C3)C1)C2 [Example 47a, 4-(Adamantan-1-ylaminomethyl)-biphenyl-3-ol] | – | – | B (key: (A)=31-95%; (B)=0-30%) | A (key: (A)=31-95%; (B)=0-30%)
Cc1csc2sc(CNC34CC5CC(CC(C5)C3)C4)c(C)c12 [Example 176a] | – | – | B (key: (A)=31-95%; (B)=0-30%) | B (key: (A)=31-95%; (B)=0-30%)
Oc1cc(O)c(CNC23CC4CC(CC(C4)C2)C3)c(O)c1 [Example 70, 2-(Adamantan-1-ylaminomethyl)-benzene-1,3,5-triol] | B (key: (A)=31-95%; (B)=0-30%) | B (key: (A)=31-95%; (B)=0-30%) | – | –

SMILES | V27A OOcyte Inhibition at 100 uM (%) ([1]; pH 5.5) | S31N OOcyte Inhibition at 100 uM (%) ([2]; pH 5.5) | V27A OOcyte Inhibition at 100 uM (%) [1] | S31N OOcyte Inhibition at 100 uM (%) [2]
CC(NCc1ccc(O)cc1)C12CC3CC(CC(C3)C1)C2 (stereo not shown) [Example 4, 4-[(1-Adamantan-1-yl-ethylamino)-methyl]-phenol] | B (key: (A)=31-95%; (B)=0-30%) | B (key: (A)=31-95%; (B)=0-30%) | – | –
c1ncc(CCNCC23CC4CC(CC(C4)C2)C3)[nH]1 [Example 1, Adamantan-1-ylmethyl-[2-(3H-imidazol-4-yl)-ethyl]-amine] | B (key: (A)=31-95%; (B)=0-30%) | B (key: (A)=31-95%; (B)=0-30%) | – | –
Oc1cccc(CNC23CC4CC(CC(C4)C2)C3)c1 [Example 31, 3-(Adamantan-1-ylaminomethyl)-phenol] | A (key: (A)=31-95%; (B)=0-30%) | B (key: (A)=31-95%; (B)=0-30%) | – | –
O=[N+]([O-])c1cc(CNC23CC4CC(CC(C4)C2)C3)ccc1O [Example 52, 4-(Adamantan-1-ylaminomethyl)-2-nitro-phenol] | A (key: (A)=31-95%; (B)=0-30%) | B (key: (A)=31-95%; (B)=0-30%) | – | –
c1ccc(-c2nnc(CNC34CC5CC(CC(C5)C3)C4)o2)cc1 [Example 115a, N-((5-phenyl-1,3,4-oxadiazol-2-yl)methyl)adamantan-1-amine] | – | – | B (key: (A)=31-95%; (B)=0-30%) | A (key: (A)=31-95%; (B)=0-30%)
c1cc2cc(CNC34CC5CC(CC(C5)C3)C4)ccc2s1 [Example 41a, N-(benzo[b]thiophen-5-ylmethyl)adamantan-1-amine] | – | – | A (key: (A)=31-95%; (B)=0-30%) | B (key: (A)=31-95%; (B)=0-30%)
Oc1ccc(CNC2C3CC4CC(C3)CC2C4)cc1O (stereo not shown) [Example 101, 4-(Adamantan-2-ylaminomethyl)-benzene-1,2-diol] | B (key: (A)=31-95%; (B)=0-30%) | B (key: (A)=31-95%; (B)=0-30%) | – | –
c1coc(-c2cc(CNC34CC5CC(CC(C5)C3)C4)no2)c1 [Example 153a, N-((5-(furan-2-yl)isoxazol-3-yl)methyl)adamantan-1-amine] | – | – | B (key: (A)=31-95%; (B)=0-30%) | A (key: (A)=31-95%; (B)=0-30%)
Oc1ccc(CNC23CC4CC(CC(C4)C2)C3)c(O)c1O [Example 65, 4-(Adamantan-1-ylaminomethyl)-benzene-1,2,3-triol] | A (key: (A)=31-95%; (B)=0-30%) | B (key: (A)=31-95%; (B)=0-30%) | – | –
c1ccc2sc(CNC34CC5CC(CC(C5)C3)C4)cc2c1 [Example 88, Adamantan-1-yl-benzo[b]thiophen-2-ylmethyl-amine] | B (key: (A)=31-95%; (B)=0-30%) | A (key: (A)=31-95%; (B)=0-30%) | – | –
c1csc(-c2ccc(-c3ccc(CNC45CC6CC(CC(C6)C4)C5)s3)s2)c1 [Example 157a, N-([2,2′:5′,2″-terthiophen]-5-ylmethyl)adamantan-1-amine] | – | – | B (key: (A)=31-95%; (B)=0-30%) | B (key: (A)=31-95%; (B)=0-30%)
c1cc2cn[nH]c2cc1CNC12CC3CC(CC(C3)C1)C2 [Example 95, Adamantan-1-yl-(1H-indazol-6-ylmethyl)-amine] | A (key: (A)=31-95%; (B)=0-30%) | B (key: (A)=31-95%; (B)=0-30%) | – | –
CC(C)(C)c1cc(CNC23CC4CC(CC(C4)C2)C3)[nH]n1 [Example 101a, N-((3-(tert-butyl)-1H-pyrazol-5-yl)methyl)adamantan-1-amine] | – | – | B (key: (A)=31-95%; (B)=0-30%) | B (key: (A)=31-95%; (B)=0-30%)
c1cc(C2CCCCC2)ccc1CNC12CC3CC(CC(C3)C1)C2 [Example 10a, Adamantan-1-yl-(4-cyclohexyl-benzyl)-amine] | – | – | B (key: (A)=31-95%; (B)=0-30%) | A (key: (A)=31-95%; (B)=0-30%)
Cc1ccc(-c2ccc(CNC34CC5CC(CC(C5)C3)C4)cc2)o1.Cl [Example 32a, N-(4-(5-Methylfuran-2-yl)benzyl)adamantan-1-amine hydrochloride] | – | – | B (key: (A)=31-95%; (B)=0-30%) | A (key: (A)=31-95%; (B)=0-30%)
c1cc(-c2nc(CNC34CC5CC(CC(C5)C3)C4)no2)cs1 [Example 143a, N-((5-(thiophen-3-yl)-1,2,4-oxadiazol-3-yl)methyl)adamantan-1-amine] | – | – | B (key: (A)=31-95%; (B)=0-30%) | A (key: (A)=31-95%; (B)=0-30%)
